Measured values published in Sander's compilation of Henry's law constants (doi:10.1016/0304-3894(88)85057-x).

Test: Henry solubility constant Hcp at 298.15 K (mol/(m3 Pa))
Settings: reference: Ashworth et al. (1988)

SMILES	Henry solubility constant Hcp
CC(Cl)(Cl)Cl [1,1,1-trichloroethane]	0.00057
ClC(Cl)C(Cl)Cl [1,1,2,2-tetrachloroethane]	0.022
ClCC(Cl)Cl [1,1,2-trichloroethane]	0.01
C=C(Cl)Cl [1,1-dichloroethene]	0.00037
c1ccc2c(c1)CCCC2 [1,2,3,4-tetrahydronaphthalene]	0.0051
CC(Cl)CCl (centres undefined) [1,2-dichloropropane]	0.0038
Cc1ccccc1C [1,2-dimethylbenzene]	0.0019
Cc1cc(C)cc(C)c1 [1,3,5-trimethylbenzene]	0.0014
Clc1cccc(Cl)c1 [1,3-dichlorobenzene]	0.003
Cc1cccc(C)c1 [1,3-dimethylbenzene]	0.0013
Clc1ccc(Cl)cc1 [1,4-dichlorobenzene]	0.0031
Cc1ccc(C)cc1 [1,4-dimethylbenzene]	0.0013
Cc1ccc(O)c(C)c1 [1-hydroxy-2,4-dimethylbenzene]	0.0019
COCCO [2-methoxyethanol]	0.00022
CCCC(C)C [2-methylpentane]	1.3e-05
CC(=O)CC(C)C [4-methyl-2-pentanone]	0.022
CC(C)c1ccccc1 [(2-propyl)-benzene]	0.0016

SMILES	Henry solubility constant Hcp
c1ccccc1 [benzene]	0.0018
Clc1ccccc1 [chlorobenzene]	0.0025
CCCl [chloroethane]	0.00079
C=CCl [chloroethene]	0.0004
C1CCCCC1 [cyclohexane]	5.5e-05
C1CCC2CCCCC2C1 (centres undefined) [decahydronaphthalene]	7.2e-05
ClC(Br)Br [dibromochloromethane]	0.0085
ClCCl [dichloromethane]	0.0034
CCc1ccccc1 [ethylbenzene]	0.0012
ClC(Cl)(Cl)C(Cl)(Cl)Cl [hexachloroethane]	0.0012
CCCCCC [hexane]	9.9e-06
Cc1ccccc1 [methylbenzene]	0.0015
CCCCCCCCC [nonane]	2.3e-05
CCCc1ccccc1 [propylbenzene]	0.0009
ClC(Cl)=C(Cl)Cl [tetrachloroethene]	0.00054
ClC(Cl)(Cl)Cl [tetrachloromethane]	0.00033
ClC=C(Cl)Cl [trichloroethene]	0.00095
